Reference: patent publication US20130303500A1, “COMPOUNDS AND METHODS FOR TREATING NEOPLASIA” (Medexis S.A., priority 2010, published 2013)

Columns and labels:
A549 (Lung) cells = test: Sulforhodamine B (SRB) assay, A549; type: cell-based; conditions: Homo sapiens; for CC50: A549, 48 h, read-out: LC50; for GI50 / IC (TGI): A549 Lung, SRB, 48 h
Description: (§1) Sulforhodamine B (SRB) assays were performed according to standard National Cancer Institute Guidelines. Briefly, human tumor cells from different cancer panels were seeded into 96 well plates in […] (plating densities ranging from 5-40,000 cells/well depending on the doubling time of individual cell lines) in serum-containing media for twenty-four hours prior to the addition of the compounds to be assayed. After 24 hours, one plate of each cell line was fixed in situ with trichloroacetic acid (TCA). The fixed slides were used to determine the cell population for each cell line at the time of drug addition (Tz). Each compound to be tested was solubilized in dimethyl sulfoxide (DMSO) and the desired concentration was then added to the medium and diluted serially 1:10 to provide a total of five or ten drug concentrations plus control (in a final volume of 200 μL). The starting dose before any dilution was 100 uM for all compounds.
(§2) Following drug addition, each culture was incubated for forty-eight hours. The assay was terminated with the addition of cold TCA. The supernatant was discarded, and the plates were washed with tap water and air dried. SRB solution was then added to each well. After staining, the bound stain was solubilized and the absorbance was read on an automated plate reader at a wavelength of 515 nm.
(§3) Using the absorbance measurements [time zero, (Tz), control growth, (C), and test growth in the presence of drug at the ten concentration levels (Ti)], the percentage growth was calculated at each of the drug concentrations levels. Percentage growth inhibition was calculated as:
(§4) [(Ti−Tz)/(C−Tz)]×100 for concentrations for which Ti>/=Tz
(§5) [(Ti−Tz)/Tz]×100 for concentrations for which Ti<Tz.
(§6) Three dose response parameters were calculated for each experimental agent. Growth inhibition of 50% (GI50) was calculated from [(Ti−Tz)/(C−Tz)]×100=50, which was the drug concentration resulting in a 50% reduction in the net protein increase (as measured by SRB staining) in control cells during the drug. The drug concentration resulting in total growth inhibition (TGI) was calculated from Ti=Tz. The LC50 (concentration of drug resulting in a 50% reduction in the measured protein at the end of the drug treatment as compared to that at the beginning) indicating a net loss of cells following treatment was calculated from [(Ti−Tz)/Tz]×100=−50.
(§7) Values were calculated for each of these three parameters when the level of activity was reached; however, if the effect was not reached or was exceeded, the value for that parameter was expressed as greater or less than the maximum or minimum concentration tested.

PC3 (Prostate) cells = test: Sulforhodamine B (SRB) assay, PC3; type: cell-based; conditions: Homo sapiens, Prostate cell, 48 h; for CC50: read-out: LC50; for GI50 / IC (TGI): PC3 Prostate, SRB
Description: as §1, §2, §3, §4, §5, §6, §7

SF268 (CNS) cells = test: Sulforhodamine B (SRB) assay, SF268; type: cell-based; conditions: Homo sapiens; for CC50: SF-268, 48 h, read-out: LC50; for GI50 / IC (TGI): SF-268, SF268 CNS, SRB, 48 h
Description: as §1, §2, §3, §4, §5, §6, §7

DU145 (Prostate) cells = test: MTT cell proliferation/viability assay, DU145; type: cell-based; conditions: Homo sapiens, DU-145, 72 h
Description: Cell proliferation/viability was assessed by the MTT [3-(4,5-dimethylthiazol-2-yl)-2,5-diphenyltetrazolium bromide] assay, which is commercially available (Sigma, St. Louis, Mo.). Cells were cultured in 96-well plates for twenty-four hours (7-10.000 cells/well) and incubated with various concentrations of the different compounds—as indicated in the Figures—in serum-containing medium (or left untreated) for seventy-two hours. At the end of incubation, the medium was aspirated and MTT dissolved in RPMI 1640 w/o phenol red was added to each well to a final concentration of 0.25 mg/ml. After four hours incubation in the dark (37° C., 5% CO2) the supernatant was discarded. The converted dye (blue formazan crystals) was solubilized by adding 200 μl dimethylsulfoxide to each well. Absorbance was measured at 550 nm with reference at 655 nm using a spectrophotometer with the respective filters. All assays were performed in triplicate.
The effect of the different compounds on the proliferation and viability of two cancer cell lines (DU145/prostate and CAKI/renal) was tested through quantitative (4,5-dimethylthiazol-2-yl)-2,5-diphenyltetrazolium bromide (MTT) assays.

H460 (Lung) cells = test: Sulforhodamine B (SRB) assay, H460; type: cell-based, human; conditions: for CC50 / GI50: Homo sapiens; for CC50: NCI-H460, 48 h, read-out: LC50; for GI50: NCI-H460
Description: as §1, §2, §3, §4, §5, §6, §7

[1] = tested on: NCI-ADR-RES (Ovarian) cells; test: Sulforhodamine B (SRB) assay, NCI-ADR-RES (multidrug resistant); type: cell-based, human; conditions: 48 h; for CC50 / GI50: Homo sapiens; for CC50: NCI/ADR-RES, read-out: LC50
Description: as §1, §2, §3, §4, §5, §6, §7

MCF7 (Breast) cells = test: Sulforhodamine B (SRB) assay, MCF7; type: cell-based, human; conditions: for CC50 / GI50: Homo sapiens; for CC50: MCF7, 48 h, read-out: LC50
Description: as §1, §2, §3, §4, §5, §6, §7

HCT116 (Colon) cells = test: Sulforhodamine B (SRB) assay, HCT116; type: cell-based, human; conditions: for CC50 / GI50: Homo sapiens; for CC50: HCT-116, 48 h, read-out: LC50; for GI50: HCT-116
Description: as §1, §2, §3, §4, §5, §6, §7

[2] = tested on: 7 different cell lines (lung, ovarian, prostate, CNS, breast, colon); test: SRB assays across 7 cell lines; type: cell-based, human; conditions: for viability and/or cell proliferation of cell lines: cell lines representative of lung, breast, CNS, prostate, ovarian, colon and renal neoplasias
Description: as §1, §2, §3, §4, §5, §6, §7
SRB provides a colorimetric measure of a compound's anti-cancer activity. SRB assays were performed with compounds of the invention in 7 different cell lines, which represent six different tumor panels (lung, ovarian, prostate, CNS, breast, colon).

[3] = molecular target: Na+/K+-ATPase (Adenosine 5′-Triphosphatase isolated from porcine cerebral cortex); test: Na+/K+-ATPase inhibitory activity, colorimetric Adenosine 5′-Triphosphatase Enzymatic Assay (Sigma); type: biochemical; conditions: enzyme from porcine cerebral cortex, 0.5 units/ml
Description: The compound inhibitory effect on ATPase activity was assessed in vitro using the colorimetric Adenosine 5′-Triphosphatase Enzymatic Assay of Sigma (St. Louis, Mo.) according to the manufacturer's instructions. This assay utilizes Adenosine 5′-Triphosphatase isolated from porcine cerebral cortex. Each reaction was performed in a final volume of […] using 0.5 units/ml enzyme in the presence of the different inhibitors. […] IC50 values were determined using the Origin® program software (OriginLab, Northampton, Mass.).

CON=C1CC2C(CC[C@]3(C)C(=O)CCC23)[C@@]2(CO)CCC(=NOC3CCNC3)CC12 (stereo in doubt) [Compound 30, (5S,10S,13S)-10-(hydroxymethyl)-6-methoxy-imino-13-methyl-3-((S)-pyrrolidin-3-yloxyimino)-tetradecahydro-14H-cyclopenta[a]phenanthrene-17-one]
CC50 (A549 (Lung) cells): 29.6 µM | GI50 (A549 (Lung) cells): 4.07 µM | CC50 (PC3 (Prostate) cells): 75.2 µM | GI50 (PC3 (Prostate) cells): 7.71 µM | IC (TGI) (PC3 (Prostate) cells): 36700 µM | CC50 (SF268 (CNS) cells): 78.4 µM | GI50 (SF268 (CNS) cells): 5.62 µM | IC (TGI) (SF268 (CNS) cells): 25800 µM | IC50 (DU145 (Prostate) cells): 6.7 µM

C=C1CC2C(CC[C@]3(C)C(=O)C(F)CC23)[C@@]2(C)CCC(=NOC3CCNC3)CC12 (stereo partly drawn) [Compound 6, (5S,10R,13S,16R)-16a-fluoro-6-methylene-10,13-dimethyl-3-((R)-pyrrolidin-3-yloxyimino)-tetradecahydro-2H-cyclopenta[a]phenanthren-17(14H)-one]
CC50 (A549 (Lung) cells): 0.053 µM | GI50 (A549 (Lung) cells): 0.005 µM | IC (TGI) (A549 (Lung) cells): 0.008 µM | TGI (H460 (Lung) cells; H460 Lung, SRB, 48 h): 0.008 µM | CC50 (H460 (Lung) cells): 0.053 µM | GI50 (H460 (Lung) cells; H460 Lung, SRB, 48 h): 0.003 µM | CC50 [1]: 0.079 µM | GI50 ([1]; NCI-ADR-RES Ovarian, SRB): 0.018 µM | TGI ([1]; NCI-ADR-RES Ovarian, SRB): 0.049 µM | CC50 (PC3 (Prostate) cells): 1.24 µM | GI50 (PC3 (Prostate) cells): 0.003 µM | IC (TGI) (PC3 (Prostate) cells): 0.055 µM | CC50 (SF268 (CNS) cells): 0.071 µM | GI50 (SF268 (CNS) cells): < 0.001 µM | IC (TGI) (SF268 (CNS) cells): 0.02 µM | CC50 (MCF7 (Breast) cells): 1.28 µM | GI50 (MCF7 (Breast) cells; MCF7 Breast, SRB, 48 h): 0.009 µM | TGI (MCF7 (Breast) cells; MCF7 Breast, SRB, 48 h): 0.082 µM | TGI (HCT116 (Colon) cells; HCT116 Colon, SRB, 48 h): 0.088 µM | CC50 (HCT116 (Colon) cells): 0.728 µM | GI50 (HCT116 (Colon) cells; HCT116 Colon, SRB, 48 h): 0.009 µM | CC50 ([2]; Homo sapiens, read-out: LC50 values): < 1 µM | GI50 ([2]; Homo sapiens, SRB, average over cell lines): < 1 µM | viability and/or cell proliferation of cell lines [2]: reduced the viability and/or cell proliferation | anti-cancer activity in SRB assays ([2]; multiple cell lines): best activity

C[C@]12CCC(=NO[C@H]3CCNC3)C(c3ccccc3)C1CCC1C2CC[C@]2(C)C(=O)CCC12 (stereo partly drawn) [Compound 21, (10R,13S)-10,13-dimethyl-4-phenyl-3-((S)-pyrrolidin-3-yloxyimino)-tetradecahydro-2H-cyclopenta[a]phenanthren-17(14H)-one]
IC50 [3]: 19.3 µM | CC50 (A549 (Lung) cells): 45.3 µM | GI50 (A549 (Lung) cells): 4.41 µM | CC50 (PC3 (Prostate) cells): 49.1 µM | GI50 (PC3 (Prostate) cells): 4.46 µM | CC50 (SF268 (CNS) cells): 57.2 µM | GI50 (SF268 (CNS) cells): 4.16 µM | IC (TGI) (SF268 (CNS) cells): 8450 µM | IC50 (DU145 (Prostate) cells): 13.5 µM | GI50 action in most cell lines ([2]; SRB): single-digit micromolar | viability and/or cell proliferation of cell lines [2]: reduced the viability and/or cell proliferation

C[C@]12CCC3C(CC[C@H]4CC(=NO[C@H]5CCNC5)CC[C@]34CO)C1CCC2=O (stereo partly drawn) [Compound 25, (5S,10R,13S)-10-(hydroxymethyl)-13-methyl-3-((S)-pyrrolidin-3-yloxyimino)-tetradecahydro-2H-cyclopenta[a]phenanthren-17(14H)-one]
IC50 [3]: 0.525 µM | CC50 (A549 (Lung) cells): > 100 µM | GI50 (A549 (Lung) cells): 4.81 µM | IC (TGI) (A549 (Lung) cells): 9410 µM | CC50 (H460 (Lung) cells): > 100 µM | GI50 (H460 (Lung) cells; H460 Lung, SRB, 48 h): 4.37 µM | CC50 (PC3 (Prostate) cells): 9.44 µM | GI50 (PC3 (Prostate) cells): 3.89 µM | CC50 (SF268 (CNS) cells): 85.4 µM | GI50 (SF268 (CNS) cells): 5.74 µM | IC (TGI) (SF268 (CNS) cells): 31300 µM | CC50 (MCF7 (Breast) cells): > 100 µM | GI50 (MCF7 (Breast) cells; MCF7 Breast, SRB, 48 h): 6.17 µM | IC50 (DU145 (Prostate) cells): 15 µM | GI50 action in most cell lines ([2]; SRB): single-digit micromolar | viability and/or cell proliferation of cell lines [2]: reduced the viability and/or cell proliferation

CC1CC2C(CC[C@]3(C)C(=O)C(F)CC23)[C@@]2(C)CCC(=NOC3CCNC3)C=C12 (stereo partly shown) [Compound 86, 16-Fluoro-6,10,13-trimethyl-1,6,7,8,9,10,11,12,13,14,15,16-dodecahydro-2H-cyclopenta[a]phenanthrene-3,17-dione 3-(O-pyrrolidin-3-yl-oxime)]
CC50 (A549 (Lung) cells): 8.05 µM | GI50 (A549 (Lung) cells): 2.45 µM | IC (TGI) (A549 (Lung) cells): 5250 µM | CC50 (H460 (Lung) cells): 8.07 µM | GI50 (H460 (Lung) cells; H460 Lung, SRB, 48 h): 2.57 µM | CC50 [1]: 48.1 µM | GI50 ([1]; NCI-ADR-RES Ovarian, SRB): 4.13 µM | CC50 (PC3 (Prostate) cells): 72.4 µM | GI50 (PC3 (Prostate) cells): 5.37 µM | IC (TGI) (PC3 (Prostate) cells): 9780 µM | CC50 (SF268 (CNS) cells): 8.11 µM | GI50 (SF268 (CNS) cells): 1.86 µM | IC (TGI) (SF268 (CNS) cells): 4980 µM | CC50 (MCF7 (Breast) cells): 59.3 µM | GI50 (MCF7 (Breast) cells; MCF7 Breast, SRB, 48 h): 4.35 µM | CC50 (HCT116 (Colon) cells): 58.8 µM | GI50 (HCT116 (Colon) cells; HCT116 Colon, SRB, 48 h): 3.71 µM | viability and/or cell proliferation of cell lines [2]: reduced the viability and/or cell proliferation
